These results are taken from publication PMC5572369 (Frontiers in Microbiology, 2017).

The target in test [1] is T1, PrbP (Candidatus Liberibacter asiaticus, UniProt A0ABM5NE52).
T1 construct: gene WSI_01420

The target in test [2] is T1, PrbP. The source holds these as a separate data set.

For the compound `Cc1c(Cl)cccc1Nc1ccccc1C(=O)O` [tolfenamic acid], the “concentration for complete disruption of PrbP/PrplK complex” value in test [1] worked out at 350 µM. In test [2], the “% decrease in transcription at 500 μM” value is 79%.
